Calls of active or inactive are those of the source.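 The calls were made as follows: active = compounds giving half or more protection of infected cells from virus-caused growth loss, again on retest; inactive = the rest.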 Where a SMILES comes first, the peptide text is derived from it. [ ]: non-standard residue; d: D form. The star is where a group is joined. NMeF = CN[CH](Cc1ccccc1)C(=O)O; NMeV = CN[CH](C(=O)O)C(C)C; Boc = CC(C)(C)OC(=O)*
Tested on: CEM cells HIV-1 protection, formazan growth assay
Assay: NCI AIDS Antiviral Assay
Conditions: for IC50: measured here: growth of uninfected CEM cells
Summary of the method: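 Soluble formazan readout of cell growth; CEM cells ± HIV-1; 5 drug concs. ≥50% protection → retest; ≥50% again = moderately active; reproducible 100% = confirmed active.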

SMILES	EC50	IC50	outcome
Cc1cc(NS(=O)(=O)c2ccc(Nc3c4ccccc4nc4c(C(=O)N5CCN(CCO)CC5)cccc34)cc2)no1	> 38 µM	> 38 µM	
Cc1ccccc1C(C#N)/C(=N/NC(=O)C(=O)NN)C(=O)Nc1cccc(C(F)(F)F)c1 (stereo not drawn)	> 209 µM	> 209 µM	
Cn1nc2ccc(Nc3cc(=O)[nH]c4ccc5nn(C)nc5c34)cc2n1	> 200 µM	95.5 µM	
Cc1c(CN2CCOCC2)cc(C(C)C)c(O)c1CN1CCOCC1	> 200 µM	> 200 µM	
CCCCCCSCC/C(C)=N\OC	> 200 µM	> 200 µM	
CCCC1OC(=O)c2ccccc2S1 (stereo not drawn)	> 200 µM	> 200 µM	
CC(=O)Nc1ccc(C(=O)CCC(NC(C)=O)C(=O)O)cc1 (stereo not drawn)	> 200 µM	> 200 µM	
COC(=O)C(C)Oc1ccc(O)cc1 (stereo not drawn)	> 1260 µM	> 1260 µM	
O=C1C=CC2(C=C1)CCC(=O)O2	2.95 µM	158 µM	
CC/C=N\N=C(N)N	> 200 µM	30.2 µM	
CSc1nc(C)cc(Nc2ccc(O)c(CN3CCCCC3)c2)n1	> 155 µM	64.6 µM	
Cc1cc2c(C)nn(Cc3ccccc3Cl)c2c(C#N)c1C	> 23.4 µM	> 23.4 µM	
CCN(CC)CCNC(=O)c1cn2c(ccc3sc4ccccc4c(=O)c32)n1	> 20 µM	1.1 µM	
COC[C@@H]1[C@H]2OC(C)(C)O[C@H]2C(=O)N1C(=O)c1ccc(OC)cc1	> 200 µM	> 200 µM	
CC(C)=CCNc1ncnc2c1ncn2CCC#N	> 200 µM	> 200 µM	
CC1=NNC(=O)C1C1CC(c2c[nH]c3ccccc23)=NNC1=O (stereo not drawn)	> 200 µM	155 µM	
CC1CN=C(Nc2ccc(S(N)(=O)=O)cc2)S1 (stereo not drawn)	> 200 µM	178 µM	
N#CC1(C2CC(=O)N(c3ccccc3)C2=O)CCCCC1=O (stereo not drawn)			inactive
O=C(OC1C#CCSCC#C/C=C\1)c1ccc2c(c1)C(=O)c1ccccc1C2=O (stereo not drawn)	> 200 µM	69.2 µM	
COc1ccc(/C=N/NC(N)=O)cc1	> 186 µM	> 186 µM	
Cc1cccc2c1CC(C1OC(=O)c3c(C)cccc31)C2=O (stereo not drawn)	> 200 µM	120 µM	
O=C1SC(c2ccccc2)(c2ccccc2)c2ccccc21	> 4.79 µM	> 4.79 µM	

SMILES	EC50	IC50	outcome
Clc1ccc(C2=NOC(C3CCCCC3)C2)cc1 (stereo not drawn)	> 38 µM	> 38 µM	
CC(=O)NC1=NC(=O)/C(=C/c2ccc(Cl)cc2Cl)N1C			inactive
CC(c1cccc2ccccc12)/[N+]([O-])=C/c1ccccc1 (stereo not drawn)	> 182 µM	162 µM	
CC(=O)OCCSSCCOC(C)=O	> 200 µM	89.1 µM	
O=C(CCNNC(=O)c1ccncc1)NCc1ccccc1	> 200 µM	> 200 µM	
N#CC(/C(=N\NC(N)=S)C(=O)NC1C2CC3CC(C2)CC1C3)c1ccc(Cl)cc1 (stereo not drawn)	> 17 µM	> 17 µM	
COc1ccc(C(=O)O)c2c(=O)c3cccnc3[nH]c12			inactive
CC(C)Oc1c(-c2ccc(F)cc2)c(O)c2c3c1oc(=O)n3C=CC2C (stereo not drawn)	13.2 µM	14.8 µM	
COc1cc2c(c3oc(=O)cc(C)c13)C(=O)[C@H](C)[C@@H](C)O2	> 200 µM	126 µM	
N#C/C(=C\c1cccc(C#N)c1)C(=O)c1ccccc1	> 115 µM	15.8 µM	
O=C1CN(CCCN2CCOCC2)CC(=O)N2Cc3ccccc3CN12	> 200 µM	> 200 µM	
C=C(CN(C)C)C(=O)c1ccc(OC2OC(COC(C)=O)C(OC(C)=O)C(OC(C)=O)C2OC(C)=O)cc1 (stereo not drawn)	> 200 µM	3.24 µM	
CC(C)C(NC(=O)OC(C)(C)C)C(=O)N(C)C(Cc1ccccc1)C(=O)N(C)C(C(=O)N(C)C(C(=O)O)C(C)C)C(C)C (stereo not drawn) (Boc-V[NMeF][NMeV][NMeV]-OH; configuration not given here)	> 200 µM	> 200 µM	
CCC(CCNC(=O)c1ccccc1)(CCNC(=O)c1ccccc1)[N+](=O)[O-]	> 200 µM	> 200 µM	
C/C1=C/C(O)C/C(C)=C\C(O)C(=O)/C=C/C2C(CC1)C2(C)C (stereo not drawn)	> 200 µM	> 200 µM	
COC(=O)C(Cc1ccccc1)N=Cc1c(O)c(O)c(C(C)C)c2cc(C)c(-c3c(C)cc4c(C(C)C)c(O)c(O)c(C=NC(Cc5ccccc5)C(=O)OC)c4c3O)c(O)c12 (stereo not drawn)	> 11.7 µM	> 11.7 µM	
C=C(C)COC(=O)COCC(=O)OCC(=C)C	> 200 µM	> 200 µM	
COc1cc(C)c(O)c(C/C=C(\C)CC2=C[C@@]3(C)CCC[C@@]3(C)[C@]3(C=CC(C)(C)O3)O2)c1	> 40.7 µM	11 µM	
O=C1C(=O)c2ccccc2C(O)=C1CCCc1ccc(Oc2ccccc2)cc1			inactive
Cc1ccc(S(=O)(=O)OI(O)CC(F)(F)F)cc1	> 200 µM	> 200 µM	
O=S(=O)(N=NC=C1c2ccccc2N(O)c2ccccc21)c1ccc(Cl)cc1			inactive
CC(C)N1CC(=O)N2CSCC2C1=O (stereo not drawn)	> 200 µM	> 200 µM	

SMILES	EC50	IC50	outcome
COc1c(OC(C)C)c(OC(C)C)c2oc(=O)n3c2c1C(c1ccccc1-n1c(C)ccc1C)C=C3 (stereo not drawn)	> 200 µM	> 200 µM	
Cc1ccc2c(c1)C(c1cccc3ccccc13)OC2=O (stereo not drawn)			inactive
NC(=O)C1CCCN1C(=O)C(N)Cc1ccccc1 (stereo not drawn) (H-Phe-Pro-NH2; configuration not given here)	> 200 µM	> 200 µM	
CCOC(=O)c1c(C)[nH]c(=S)c(C#N)c1-c1ccc(Cl)cc1	> 200 µM	43.7 µM	
CC1=NN(C(=O)c2ccc(O)cc2)C(=O)C1N=Nc1ccccc1C(=O)O (stereo not drawn)			inactive
CC(SC(C)C(=O)N/N=C/c1ccc(B(O)O)cc1)C(=O)N/N=C\c1ccc(B(O)O)cc1 (stereo not drawn)	> 200 µM	> 200 µM	
CC1C/C(=N\N(C)C)C(C#N)(C#N)C1(C#N)C#N (stereo not drawn)	> 200 µM	6.03 µM	
CCOC(=O)c1sc2c(c1O)c(=O)n(-c1ccccc1)c(=S)n2-c1ccccc1	> 17 µM	> 17 µM	
Cn1c(=O)cc(O)c2ccccc21	> 200 µM	> 200 µM	
Cc1cc(C)nc(NS(=O)(=O)c2ccc(NC(=O)NC(F)(F)F)cc2)n1	> 200 µM	> 200 µM	
CC1=C(/C=C/C(C)=C/C=C/C(C)=C/C=C/C=C(C)/C=C/C=C(C)/C=C/C2=C(C)C(=O)C(O)CC2(C)C)C(C)(C)CC(O)C1=O (stereo not drawn)	> 43.7 µM	> 43.7 µM	
CC1(C)OC(=O)C(C#N)=C1C[n+]1ccccc1	> 263 µM	> 263 µM	
NC1=NS(=O)(=O)N=C(N)C1=NNc1ccc([N+](=O)[O-])cc1	> 794 µM	126 µM	
COc1ccc([C@@]2(O)c3c(ccc(O)c3OC)[C@H]2OC)c(OC)c1	> 15.8 µM	9.33 µM	
CCc1oc2ccccc2c1C(=O)c1ccc(O)cc1	> 324 µM	53.7 µM	
CC1(C)/C=C/CC2(C)Oc3ccccc3C[C@@H]2CCC2(C)Oc3ccccc3C[C@@H]2C1 (stereo partly drawn)	> 12 µM	> 12 µM	
NC1(CCNC(=O)c2ccccc2)CCN(C(=O)c2ccccc2)CC1	> 200 µM	145 µM	
COc1ccc(C2C3C(=O)OCCOC(=O)C3C2c2ccc(OC)c(OC)c2)cc1OC (stereo not drawn)	> 91.2 µM	83.2 µM	
Cc1cc2c(=O)c3ccccc3oc2c(C(=O)O)c1C	> 200 µM	> 200 µM	
CC(=O)NC1=N/C(=C\c2ccc(Cl)cc2)C(=O)N1/C=C1\C(=O)Oc2ccccc2C1=O	> 200 µM	87.1 µM	
O=C1OCC2=C1C(c1ccc3c(c1)OCO3)c1cc3c(cc1O2)OCO3 (stereo not drawn)	> 200 µM	1.66 µM	
Cc1cc([N+](=O)[O-])c(=O)[nH]c1C	> 1480 µM	832 µM	

SMILES	EC50	IC50	outcome
CCc1n[nH]c(=O)n1NC(=O)CCCC(=O)O	> 200 µM	> 200 µM	
COC(=O)C12C(=O)CC3CCC1C32C(=O)OC (stereo not drawn)			inactive
CNN1C(=O)c2c(N)c(C#N)c(-c3ccccc3)c(-c3ccccc3)c2C1=O	16.2 µM	174 µM	
COc1cc2c(cc1Oc1ccc(OC)c3c1CC1c4c(cc(OC)c(OC)c4-3)CCN1C)CC1c3c(cc(OC)c(OC)c3-2)CCN1C (stereo not drawn)			inactive
CC1=C2[C@@H](c3ccccc3)C3C=CC2(c2ccccc23)N(C(=O)Nc2cccc3ccccc23)C1=O (stereo partly drawn)	> 5.75 µM	> 5.75 µM	
COc1cc2c(cc1OC)CC(=O)Nc1cc(OC)c(OC)cc1CC2			inactive
CC(C)(C)OC(=O)N(CCCN)CCCCN	> 200 µM		
C/C=C/C[P+](Cc1ccccc1)(c1ccccc1)c1ccccc1	> 603 µM	4.17 µM	
OCC1OC(n2cnc3c(Cl)nc(Nc4ccccc4)nc32)CC1O (stereo not drawn)	> 200 µM	28.2 µM	
CCCCCCCCCCCCCC(=O)CBr			inactive
O=S(=O)(N=[Se](=O)(c1ccccc1)c1ccccc1)c1ccccc1	> 200 µM	115 µM	
CSc1ccn(C2CC(F)C(CO)O2)c(=O)n1 (stereo not drawn)	42.7 µM	> 200 µM	
O=c1[nH]c(=O)n(CCOc2ccccc2)cc1Nc1ccccc1	> 200 µM	> 200 µM	
Cc1cc(=O)[nH]c(NNC(C#N)c2ccccc2O)n1 (stereo not drawn)	> 182 µM	0.38 µM	
O=C(/C=C/c1ccc2c(c1)OCO2)c1ccc(O)cc1	> 200 µM	29.5 µM	
S=c1[nH]nc2n1NC(c1ccccc1)=NN2	> 295 µM	> 295 µM	
Cc1ccc(SSCCN)cc1	> 200 µM	11.7 µM	
C[C@]12CC[C@H](OC(=O)CCC(=O)O)CC1=CC[C@@H]1C2CC[C@@]2(C)C1CC[C@@H]2c1nc(-c2ccccc2)cs1 (stereo partly drawn)	> 46.8 µM	17.4 µM	
CC(=O)C(N=Nc1ccc(S(=O)(=O)NC2ONC(C)C2C)cc1)C(=O)Nc1ccc(Cl)cc1 (stereo not drawn)	> 200 µM	36.3 µM	
COc1ccc([C@H]2CC(=O)C[C@H](c3ccc(OC)cc3OC)C23C(=O)c2ccccc2C3=O)c(OC)c1	> 200 µM	151 µM	
O=C(Sc1c(-c2ccccc2)c(=O)n(-c2ccccc2)c(=S)n1-c1ccccc1)c1ccccc1	> 200 µM	8.51 µM	
Oc1c2c(c(O)c3ccccc13)=N[C@@H](c1ccccc1)[C@H](c1ccccc1)N=2			inactive
